Assay results reported in PubChem BioAssay (NCI).
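Method: 48-hour compound exposure of cells in 96-well plates, five concentrations, linear interpolation of endpoints. Definition used: TGI = concentration required for complete inhibition of growth.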

Columns and labels:
Assay in all cases: inhibition of tumour cell growth, NCI panel, 48 h
IGROV1 ovarian = test system: IGROV1 ovarian
SR leukemia = test system: SR leukemia
SK-MEL-5 melanoma = test system: SK-MEL-5 melanoma
UACC-257 melanoma = test system: UACC-257 melanoma
HOP-62 NSCLC = test system: HOP-62 NSCLC
KM20L2 colon = test system: KM20L2 colon
A498 renal = test system: A498 renal
SNB-78 CNS = test system: SNB-78 CNS
HOP-18 NSCLC = test system: HOP-18 NSCLC
786-0 renal = test system: 786-0 renal
DLD-1 colon = test system: DLD-1 colon
HCC-2998 colon = test system: HCC-2998 colon
UACC-62 melanoma = test system: UACC-62 melanoma
RXF-631 renal = test system: RXF-631 renal
SW-620 colon = test system: SW-620 colon
EKVX NSCLC = test system: EKVX NSCLC
CCRF-CEM leukemia = test system: CCRF-CEM leukemia
SK-OV-3 ovarian = test system: SK-OV-3 ovarian
NCI-H522 lung = test system: NCI-H522 lung
CAKI-1 renal = test system: CAKI-1 renal
M14 melanoma = test system: M14 melanoma
SN12C renal = test system: SN12C renal
NCI-H23 lung = test system: NCI-H23 lung
XF 498 CNS = test system: XF 498 CNS
SF-268 CNS = test system: SF-268 CNS
KM12 colon = test system: KM12 colon
HCT-116 colon = test system: HCT-116 colon
HT29 colon = test system: HT29 colon
TK-10 renal = test system: TK-10 renal
RXF 393 renal = test system: RXF 393 renal
M19-MEL melanoma = test system: M19-MEL melanoma
SF-539 CNS = test system: SF-539 CNS
MOLT-4 leukemia = test system: MOLT-4 leukemia
RPMI-8226 leukemia = test system: RPMI-8226 leukemia
OVCAR-3 ovarian = test system: OVCAR-3 ovarian
DMS 273 small cell lung = test system: DMS 273 small cell lung
SF-295 CNS = test system: SF-295 CNS
U251 CNS = test system: U251 CNS
SNB-75 CNS = test system: SNB-75 CNS
OVCAR-4 ovarian = test system: OVCAR-4 ovarian
K-562 leukemia = test system: K-562 leukemia
SNB-19 CNS = test system: SNB-19 CNS
A549 NSCLC = test system: A549 NSCLC
OVCAR-8 ovarian = test system: OVCAR-8 ovarian
SK-MEL-28 melanoma = test system: SK-MEL-28 melanoma
ACHN renal = test system: ACHN renal
OVCAR-5 ovarian = test system: OVCAR-5 ovarian
HCT-15 colon = test system: HCT-15 colon
NCI-H460 lung = test system: NCI-H460 lung
HOP-92 NSCLC = test system: HOP-92 NSCLC
DMS 114 small cell lung = test system: DMS 114 small cell lung
UO-31 renal = test system: UO-31 renal
COLO 205 colon = test system: COLO 205 colon
HL-60(TB) leukemia = test system: HL-60(TB) leukemia
MALME-3M melanoma = test system: MALME-3M melanoma
SK-MEL-2 melanoma = test system: SK-MEL-2 melanoma
LOX IMVI melanoma = test system: LOX IMVI melanoma
NCI-H226 lung = test system: NCI-H226 lung
LXFL 529 NSCLC = test system: LXFL 529 NSCLC

O=C(CN1CCN(c2cccc(Cl)c2)CC1)N1CCc2c([nH]c3ccccc23)C1c1cccnc1 (stereo not given)
TGI (IGROV1 ovarian): > 100 µM | TGI (SR leukemia): 7.19 µM | TGI (SK-MEL-5 melanoma): 32.6 µM | TGI (UACC-257 melanoma): 35.4 µM | TGI (HOP-62 NSCLC): 63.9 µM | TGI (KM20L2 colon): 11.7 µM | TGI (A498 renal): 67.9 µM | TGI (SNB-78 CNS): > 100 µM | TGI (HOP-18 NSCLC): 97.8 µM | TGI (786-0 renal): 44.3 µM | TGI (DLD-1 colon): > 100 µM | TGI (HCC-2998 colon): 21.6 µM | TGI (UACC-62 melanoma): 39.3 µM | TGI (RXF-631 renal): 40.4 µM | TGI (SW-620 colon): 52 µM | TGI (EKVX NSCLC): 94.1 µM | TGI (CCRF-CEM leukemia): 17.8 µM | TGI (SK-OV-3 ovarian): > 100 µM | TGI (NCI-H522 lung): 48.6 µM | TGI (CAKI-1 renal): 54.7 µM | TGI (M14 melanoma): 19.4 µM | TGI (SN12C renal): > 100 µM | TGI (NCI-H23 lung): 50.3 µM | TGI (XF 498 CNS): 35.9 µM | TGI (SF-268 CNS): > 100 µM | TGI (KM12 colon): 20.2 µM | TGI (HCT-116 colon): 17 µM | TGI (HT29 colon): 15.9 µM | TGI (TK-10 renal): > 100 µM | TGI (RXF 393 renal): 14.8 µM | TGI (M19-MEL melanoma): 68.6 µM | TGI (SF-539 CNS): 42.3 µM | TGI (MOLT-4 leukemia): 6.94 µM | TGI (RPMI-8226 leukemia): 5.26 µM | TGI (OVCAR-3 ovarian): 42.2 µM | TGI (DMS 273 small cell lung): 84.5 µM | TGI (SF-295 CNS): 50.8 µM | TGI (U251 CNS): 48.8 µM | TGI (SNB-75 CNS): 26.6 µM | TGI (OVCAR-4 ovarian): 75.7 µM | TGI (K-562 leukemia): 17.8 µM | TGI (SNB-19 CNS): > 100 µM | TGI (A549 NSCLC): > 100 µM | TGI (OVCAR-8 ovarian): > 100 µM | TGI (SK-MEL-28 melanoma): > 100 µM | TGI (ACHN renal): > 100 µM | TGI (OVCAR-5 ovarian): 45.2 µM | TGI (HCT-15 colon): > 100 µM | TGI (NCI-H460 lung): 33.1 µM | TGI (HOP-92 NSCLC): 42 µM | TGI (DMS 114 small cell lung): 39.4 µM | TGI (UO-31 renal): 57.7 µM

CC1OC(n2cc(Cl)c(=O)[nH]c2=O)C=C(OC(=O)c2ccccc2)C1=O (stereo not given)
TGI (IGROV1 ovarian): > 100 µM | TGI (SK-MEL-5 melanoma): > 100 µM | TGI (UACC-257 melanoma): > 100 µM | TGI (HOP-62 NSCLC): > 100 µM | TGI (KM20L2 colon): > 100 µM | TGI (COLO 205 colon): > 100 µM | TGI (SNB-78 CNS): > 100 µM | TGI (HOP-18 NSCLC): > 100 µM | TGI (HL-60(TB) leukemia): > 100 µM | TGI (786-0 renal): > 100 µM | TGI (DLD-1 colon): > 100 µM | TGI (UACC-62 melanoma): > 100 µM | TGI (RXF-631 renal): > 100 µM | TGI (SW-620 colon): > 100 µM | TGI (EKVX NSCLC): > 100 µM | TGI (CCRF-CEM leukemia): > 100 µM | TGI (SK-OV-3 ovarian): > 100 µM | TGI (CAKI-1 renal): > 100 µM | TGI (MALME-3M melanoma): > 100 µM | TGI (M14 melanoma): > 100 µM | TGI (SN12C renal): > 100 µM | TGI (NCI-H23 lung): > 100 µM | TGI (XF 498 CNS): > 100 µM | TGI (HT29 colon): > 100 µM | TGI (SK-MEL-2 melanoma): > 100 µM | TGI (TK-10 renal): > 100 µM | TGI (RXF 393 renal): > 100 µM | TGI (M19-MEL melanoma): > 100 µM | TGI (SF-539 CNS): > 100 µM | TGI (MOLT-4 leukemia): > 100 µM | TGI (RPMI-8226 leukemia): > 100 µM | TGI (OVCAR-3 ovarian): > 100 µM | TGI (DMS 273 small cell lung): > 100 µM | TGI (SF-295 CNS): > 100 µM | TGI (U251 CNS): > 100 µM | TGI (LOX IMVI melanoma): > 100 µM | TGI (SNB-75 CNS): > 100 µM | TGI (OVCAR-4 ovarian): > 100 µM | TGI (K-562 leukemia): > 100 µM | TGI (SNB-19 CNS): > 100 µM | TGI (A549 NSCLC): > 100 µM | TGI (OVCAR-8 ovarian): > 100 µM | TGI (SK-MEL-28 melanoma): > 100 µM | TGI (ACHN renal): > 100 µM | TGI (HCT-15 colon): > 100 µM | TGI (NCI-H460 lung): > 100 µM | TGI (HOP-92 NSCLC): > 100 µM | TGI (DMS 114 small cell lung): > 100 µM | TGI (UO-31 renal): > 100 µM

COc1ccc(-c2nc(Sc3c([N+](=O)[O-])ncn3C)n[nH]2)cc1
TGI (IGROV1 ovarian): 77.3 µM | TGI (SR leukemia): 37.3 µM | TGI (SK-MEL-5 melanoma): 6.83 µM | TGI (UACC-257 melanoma): 39.2 µM | TGI (HOP-62 NSCLC): 89.9 µM | TGI (A498 renal): 37.6 µM | TGI (COLO 205 colon): 3.28 µM | TGI (SNB-78 CNS): > 100 µM | TGI (HOP-18 NSCLC): 5.53 µM | TGI (786-0 renal): 13.8 µM | TGI (DLD-1 colon): 6.82 µM | TGI (NCI-H226 lung): 38.1 µM | TGI (HCC-2998 colon): 30.2 µM | TGI (UACC-62 melanoma): 11.1 µM | TGI (RXF-631 renal): 22.2 µM | TGI (SW-620 colon): > 100 µM | TGI (EKVX NSCLC): > 100 µM | TGI (CCRF-CEM leukemia): 40.2 µM | TGI (SK-OV-3 ovarian): > 100 µM | TGI (NCI-H522 lung): 5.75 µM | TGI (CAKI-1 renal): > 100 µM | TGI (MALME-3M melanoma): 9.9 µM | TGI (M14 melanoma): 4.96 µM | TGI (SN12C renal): 8.23 µM | TGI (NCI-H23 lung): 3.97 µM | TGI (XF 498 CNS): 9.78 µM | TGI (SF-268 CNS): 21.1 µM | TGI (KM12 colon): 4.31 µM | TGI (HCT-116 colon): > 100 µM | TGI (SK-MEL-2 melanoma): 4.95 µM | TGI (TK-10 renal): 44.2 µM | TGI (RXF 393 renal): 4.28 µM | TGI (M19-MEL melanoma): > 100 µM | TGI (SF-539 CNS): 4.18 µM | TGI (MOLT-4 leukemia): 9.56 µM | TGI (RPMI-8226 leukemia): 23.9 µM | TGI (DMS 273 small cell lung): 4.77 µM | TGI (LXFL 529 NSCLC): 13 µM | TGI (SF-295 CNS): 16.5 µM | TGI (U251 CNS): 5.55 µM | TGI (LOX IMVI melanoma): 7.92 µM | TGI (SNB-75 CNS): > 100 µM | TGI (OVCAR-4 ovarian): 81.2 µM | TGI (K-562 leukemia): > 100 µM | TGI (SNB-19 CNS): 39.3 µM | TGI (A549 NSCLC): > 100 µM | TGI (OVCAR-8 ovarian): 5.4 µM | TGI (SK-MEL-28 melanoma): 22 µM | TGI (ACHN renal): 23.1 µM | TGI (OVCAR-5 ovarian): > 100 µM | TGI (NCI-H460 lung): 69.1 µM | TGI (HOP-92 NSCLC): 8.88 µM | TGI (DMS 114 small cell lung): 6.64 µM | TGI (UO-31 renal): > 100 µM
